{"source": "ChEMBL document CHEMBL1158136", "about": "“Ashwagandhanolide, a bioactive dimeric thiowithanolide isolated from the roots of Withania somnifera” (2006)", "key": {"[1]": {"molecular_target": "Prostaglandin G/H synthase 1 (Homo sapiens) (UniProt P23219)", "sequence (P23219 whole entry)": "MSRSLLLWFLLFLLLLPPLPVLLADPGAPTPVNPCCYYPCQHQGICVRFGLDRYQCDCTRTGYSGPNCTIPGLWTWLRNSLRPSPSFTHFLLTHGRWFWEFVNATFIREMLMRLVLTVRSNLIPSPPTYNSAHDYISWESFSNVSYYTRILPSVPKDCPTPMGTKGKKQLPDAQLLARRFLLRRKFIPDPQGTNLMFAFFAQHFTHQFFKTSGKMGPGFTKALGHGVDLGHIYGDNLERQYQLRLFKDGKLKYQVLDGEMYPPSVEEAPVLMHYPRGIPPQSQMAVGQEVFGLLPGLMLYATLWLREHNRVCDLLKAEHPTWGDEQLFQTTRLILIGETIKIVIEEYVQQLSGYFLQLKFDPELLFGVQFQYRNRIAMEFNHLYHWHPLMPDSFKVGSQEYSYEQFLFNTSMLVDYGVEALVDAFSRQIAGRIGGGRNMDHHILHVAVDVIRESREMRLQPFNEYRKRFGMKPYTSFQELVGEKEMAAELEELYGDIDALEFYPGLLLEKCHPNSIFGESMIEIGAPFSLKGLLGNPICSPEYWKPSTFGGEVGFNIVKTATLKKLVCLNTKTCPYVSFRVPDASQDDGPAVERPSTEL", "assay": "Inhibition of COX1 at 100 ug/mL"}, "AGS": {"system": "AGS", "assay": "Cytotoxicity against human AGS cells by MTT assay", "format": "functional"}, "MCF7": {"system": "MCF7", "assay": "Cytotoxicity against human MCF7 cells by MTT assay", "format": "functional"}, "SF-268": {"system": "SF-268", "assay": "Cytotoxicity against human SF-268 cells by MTT assay", "format": "functional"}, "[2]": {"assay": "Cytotoxicity against human HCT 116 cells by MTT assay", "format": "functional"}, "NCI-H460": {"system": "NCI-H460", "assay": "Cytotoxicity against human NCI-H460 cells by MTT assay", "format": "functional"}, "[3]": {"molecular_target": "T1, Prostaglandin G/H synthase 2 (Homo sapiens) (UniProt P35354)", "T1 sequence (whole entry)": "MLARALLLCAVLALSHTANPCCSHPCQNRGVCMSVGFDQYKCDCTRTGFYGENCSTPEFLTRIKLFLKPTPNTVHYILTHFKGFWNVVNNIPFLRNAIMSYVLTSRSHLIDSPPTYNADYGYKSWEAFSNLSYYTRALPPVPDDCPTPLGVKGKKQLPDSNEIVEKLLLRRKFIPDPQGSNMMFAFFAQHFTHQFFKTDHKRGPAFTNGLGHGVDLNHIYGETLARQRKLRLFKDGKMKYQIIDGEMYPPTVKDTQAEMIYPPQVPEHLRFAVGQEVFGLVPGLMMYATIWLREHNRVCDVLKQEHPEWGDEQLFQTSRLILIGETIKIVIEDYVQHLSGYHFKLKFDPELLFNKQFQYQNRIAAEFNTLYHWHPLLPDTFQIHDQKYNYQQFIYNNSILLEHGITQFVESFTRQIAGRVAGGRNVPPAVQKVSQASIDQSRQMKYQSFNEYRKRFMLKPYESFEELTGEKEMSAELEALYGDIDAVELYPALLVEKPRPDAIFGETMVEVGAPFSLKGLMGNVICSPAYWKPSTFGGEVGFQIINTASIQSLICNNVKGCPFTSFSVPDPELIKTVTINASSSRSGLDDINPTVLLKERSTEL", "assay": "Inhibition of COX2 at 100 ug/mL"}}}
{"smiles": "CC1=C(CO)C(=O)O[C@@H]([C@@H](C)[C@H]2CC[C@H]3[C@@H]4C[C@H](S[C@H]5C[C@H]6[C@@H]7CC[C@H]([C@H](C)[C@H]8CC(C)=C(CO)C(=O)O8)[C@@]7(C)CC[C@@H]6[C@@]6(C)C(=O)C=C[C@H](O)[C@@]56O)[C@]5(O)[C@@H](O)C=CC(=O)[C@]5(C)[C@H]4CC[C@]23C)C1", "note": "[ASHWAGANDHANOLIDE]", "values": [{"measurement": "inhibition", "setting": "[1]", "result": 65, "unit": "%"}, {"measurement": "IG50", "setting": "AGS", "result": 0.43, "unit": "µg/mL"}, {"measurement": "IG50", "setting": "MCF7", "result": 1.45, "unit": "µg/mL"}, {"measurement": "IG50", "setting": "SF-268", "result": 0.84, "unit": "µg/mL"}, {"measurement": "IG50", "setting": "[2]", "result": 1.25, "unit": "µg/mL"}, {"measurement": "IG50", "setting": "NCI-H460", "result": 1.48, "unit": "µg/mL"}, {"measurement": "inhibition", "setting": "[3]", "result": 60, "unit": "%"}]}
